According to ChEMBL document CHEMBL5465560, “Selectivity Literature for EUbOPEN Chemogenomic Library” (2024):

Assays:
[1] = molecular target: Histone-lysine N-methyltransferase ASH1L (Homo sapiens) (UniProt Q9NR48); assay: Selectivity interaction (Human bromodomain panel (DSF assay)) EUB0000233b ASH1L
[2] = molecular target: Calcium/calmodulin-dependent protein kinase type 1D (Homo sapiens) (UniProt Q8IU85); assay: Selectivity interaction (KinomeScan (DiscoverX)) EUB0000607a CAMK1D; details: at 10 µM
[3] = molecular target: NT-3 growth factor receptor (Homo sapiens, UniProt Q16288); assay: Selectivity interaction (KinomeScan (DiscoverX)) EUB0000607a NTRK3; details: at 10 µM
[4] = molecular target: T1, Dual specificity mitogen-activated protein kinase kinase 1 (Homo sapiens, UniProt Q02750); assay: (§1) Selectivity interaction (ActivX KiNativ screen (kinase selectivity in THP-1 cell lysates)) EUB0000639a MAP2K1; format: subcellular; details: lysate
[5] = molecular target: T1, Dual specificity mitogen-activated protein kinase kinase 1; assay: as §1; format: subcellular; details: lysate, at 0.01 µM
[6] = molecular target: MAP/microtubule affinity-regulating kinase 3 (Homo sapiens) (UniProt P27448); assay: Selectivity interaction (ActivX KiNativ screen (kinase selectivity in THP-1 cell lysates)) EUB0000639a MARK3; format: subcellular; details: lysate, at 1 µM
[7] = molecular target: T2, Alpha-1A adrenergic receptor (Homo sapiens) (UniProt P35348); assay: Selectivity interaction (Panel of non-epigenetic targets (kinases, GPCRs, ion channels, and transporters, Eurofins) ) EUB0000271b ADRA1A; details: at 1 µM
T2 sequence (whole entry): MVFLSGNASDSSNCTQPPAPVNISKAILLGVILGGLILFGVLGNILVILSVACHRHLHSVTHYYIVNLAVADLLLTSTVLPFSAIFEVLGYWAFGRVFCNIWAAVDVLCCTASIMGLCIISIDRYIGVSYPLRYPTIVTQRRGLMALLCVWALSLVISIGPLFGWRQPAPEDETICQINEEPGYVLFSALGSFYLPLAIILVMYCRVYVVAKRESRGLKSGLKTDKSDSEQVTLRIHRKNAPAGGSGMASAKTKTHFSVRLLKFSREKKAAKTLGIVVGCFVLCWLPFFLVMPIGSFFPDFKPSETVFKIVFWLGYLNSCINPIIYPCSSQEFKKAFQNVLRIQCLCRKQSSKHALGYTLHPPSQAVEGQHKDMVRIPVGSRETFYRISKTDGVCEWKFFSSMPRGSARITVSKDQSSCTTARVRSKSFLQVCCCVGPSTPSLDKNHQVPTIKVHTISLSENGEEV

[8] = molecular target: Tyrosine-protein kinase HCK (Homo sapiens) (UniProt P08631); assay: Selectivity interaction (KinomeScan (DiscoverX)) EUB0000695a HCK; details: at 100 nM
[9] = molecular target: T3, Interleukin-1 receptor-associated kinase 4 (Homo sapiens) (UniProt Q9NWZ3); assay: Selectivity interaction (KinomeScan (DiscoverX)) EUB0000695a IRAK4; details: at 100 nM
T3 sequence (whole entry): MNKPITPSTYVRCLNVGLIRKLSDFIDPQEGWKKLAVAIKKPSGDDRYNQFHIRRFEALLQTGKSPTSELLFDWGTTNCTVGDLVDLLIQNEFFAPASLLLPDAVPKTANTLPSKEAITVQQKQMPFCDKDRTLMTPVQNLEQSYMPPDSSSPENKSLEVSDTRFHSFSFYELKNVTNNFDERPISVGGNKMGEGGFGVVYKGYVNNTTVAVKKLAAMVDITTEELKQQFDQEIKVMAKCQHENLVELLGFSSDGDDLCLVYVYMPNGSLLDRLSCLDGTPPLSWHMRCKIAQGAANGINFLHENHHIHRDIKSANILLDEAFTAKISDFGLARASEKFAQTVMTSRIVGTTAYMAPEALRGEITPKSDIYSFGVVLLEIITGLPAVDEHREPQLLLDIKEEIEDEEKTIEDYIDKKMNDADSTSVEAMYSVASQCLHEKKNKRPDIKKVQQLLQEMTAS

[10] = molecular target: Phosphatidylinositol 3-kinase catalytic subunit type 3 (Homo sapiens, UniProt Q8NEB9); assay: Selectivity interaction (KinomeScan (DiscoverX)) EUB0001079a PIK3C3; details: at 1 µM
[11] = molecular target: Serine/threonine-protein kinase 32B (Homo sapiens) (UniProt Q9NY57); assay: Selectivity interaction (KinomeScan (DiscoverX)) EUB0001079a STK32B; details: at 1 µM
[12] = molecular target: Mitogen-activated protein kinase kinase kinase kinase 5 (Homo sapiens) (UniProt Q9Y4K4); assay: Selectivity interaction (Kinase panel (KiNativ target engagement assay in Jurkat cells)) EUB0001635a MAP4K5; format: cell-based; details: Selectivity number of off-targets 0.0, Selectivity number of targets 233.0, Source Knowledge https://www.sciencedirect.com/science/article/pii/S2451945619300674?via%3Dihub, at 1 µM
[13] = molecular target: T4, Myosin light chain kinase family member 4 (Homo sapiens) (UniProt Q86YV6); assay: Selectivity interaction (KinomeScan (DiscoverX)) EUB0001550a MYLK4; details: at 1 µM
T4 sequence (whole entry): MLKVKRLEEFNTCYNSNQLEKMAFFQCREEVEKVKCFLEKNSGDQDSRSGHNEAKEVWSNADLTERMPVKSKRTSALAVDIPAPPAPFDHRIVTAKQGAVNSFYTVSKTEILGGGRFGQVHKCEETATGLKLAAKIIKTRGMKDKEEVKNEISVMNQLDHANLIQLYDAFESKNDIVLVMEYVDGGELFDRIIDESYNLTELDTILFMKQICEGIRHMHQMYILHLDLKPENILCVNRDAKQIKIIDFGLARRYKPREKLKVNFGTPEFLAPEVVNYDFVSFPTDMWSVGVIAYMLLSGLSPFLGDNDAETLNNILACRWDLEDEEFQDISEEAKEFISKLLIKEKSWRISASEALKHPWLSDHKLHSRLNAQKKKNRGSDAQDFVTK

[14] = molecular target: Bromodomain testis-specific protein (Homo sapiens) (UniProt Q58F21); assay: Selectivity interaction (Bromodomain panel (DSF asssay)) EUB0000270b BRDT
[15] = molecular target: T5, Dual specificity mitogen-activated protein kinase kinase 4 (Homo sapiens) (UniProt P45985); details: at 10 µM
T5 sequence (whole entry): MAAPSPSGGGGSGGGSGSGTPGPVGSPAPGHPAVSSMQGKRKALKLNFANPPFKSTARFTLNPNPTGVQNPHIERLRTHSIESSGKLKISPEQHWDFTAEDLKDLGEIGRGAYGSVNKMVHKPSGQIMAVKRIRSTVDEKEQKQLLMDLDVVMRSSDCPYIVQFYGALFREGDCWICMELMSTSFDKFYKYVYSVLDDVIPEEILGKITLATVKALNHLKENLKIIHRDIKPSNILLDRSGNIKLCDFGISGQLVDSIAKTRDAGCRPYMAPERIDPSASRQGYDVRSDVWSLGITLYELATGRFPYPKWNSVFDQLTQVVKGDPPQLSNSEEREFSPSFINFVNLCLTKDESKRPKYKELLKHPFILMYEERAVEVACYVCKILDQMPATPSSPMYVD

T1 sequence (Q02750 whole entry): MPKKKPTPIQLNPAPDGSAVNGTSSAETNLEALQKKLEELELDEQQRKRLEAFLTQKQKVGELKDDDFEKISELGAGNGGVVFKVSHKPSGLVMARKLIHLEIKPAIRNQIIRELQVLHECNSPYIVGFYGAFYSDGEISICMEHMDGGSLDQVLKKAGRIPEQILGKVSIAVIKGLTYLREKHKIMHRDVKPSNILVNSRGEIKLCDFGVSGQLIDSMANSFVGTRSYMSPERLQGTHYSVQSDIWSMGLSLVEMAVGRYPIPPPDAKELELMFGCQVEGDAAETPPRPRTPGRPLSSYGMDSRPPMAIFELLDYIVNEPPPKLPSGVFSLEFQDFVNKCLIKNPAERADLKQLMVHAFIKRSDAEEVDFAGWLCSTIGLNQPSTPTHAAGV
Sequence of Calcium/calmodulin-dependent protein kinase type 1D (Homo sapiens) (Q8IU85 whole entry, looked up): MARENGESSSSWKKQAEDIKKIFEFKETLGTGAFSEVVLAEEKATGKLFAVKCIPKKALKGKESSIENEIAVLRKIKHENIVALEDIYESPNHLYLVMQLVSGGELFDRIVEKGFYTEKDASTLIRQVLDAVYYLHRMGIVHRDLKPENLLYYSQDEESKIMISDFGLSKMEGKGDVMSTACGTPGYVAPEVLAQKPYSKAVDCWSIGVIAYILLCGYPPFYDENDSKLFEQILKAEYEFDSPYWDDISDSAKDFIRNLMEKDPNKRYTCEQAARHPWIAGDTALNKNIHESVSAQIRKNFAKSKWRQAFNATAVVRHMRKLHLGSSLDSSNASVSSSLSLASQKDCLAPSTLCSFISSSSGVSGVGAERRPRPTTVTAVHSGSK
Sequence of MAP/microtubule affinity-regulating kinase 3 (Homo sapiens) (P27448 whole entry, looked up): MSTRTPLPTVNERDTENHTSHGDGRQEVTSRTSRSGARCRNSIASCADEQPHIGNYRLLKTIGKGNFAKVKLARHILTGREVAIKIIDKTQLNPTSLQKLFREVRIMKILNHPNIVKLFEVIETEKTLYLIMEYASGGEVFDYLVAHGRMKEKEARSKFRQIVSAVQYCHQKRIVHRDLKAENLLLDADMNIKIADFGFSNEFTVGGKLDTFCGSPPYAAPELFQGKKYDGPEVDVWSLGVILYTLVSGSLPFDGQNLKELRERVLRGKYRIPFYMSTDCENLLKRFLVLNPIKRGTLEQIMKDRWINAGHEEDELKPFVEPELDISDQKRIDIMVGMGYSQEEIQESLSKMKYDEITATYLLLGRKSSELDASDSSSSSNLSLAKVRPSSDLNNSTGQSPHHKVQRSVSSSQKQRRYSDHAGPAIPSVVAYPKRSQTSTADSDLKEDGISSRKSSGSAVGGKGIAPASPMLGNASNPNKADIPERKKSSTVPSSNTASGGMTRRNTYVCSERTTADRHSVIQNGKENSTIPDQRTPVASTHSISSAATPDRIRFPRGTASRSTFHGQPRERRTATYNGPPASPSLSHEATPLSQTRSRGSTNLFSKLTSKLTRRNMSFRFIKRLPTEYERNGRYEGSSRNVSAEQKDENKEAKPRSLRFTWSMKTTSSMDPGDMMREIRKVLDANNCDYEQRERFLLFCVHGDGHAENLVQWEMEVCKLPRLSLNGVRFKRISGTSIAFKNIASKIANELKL
Sequence of Tyrosine-protein kinase HCK (Homo sapiens) (P08631 2-526 limits assumed): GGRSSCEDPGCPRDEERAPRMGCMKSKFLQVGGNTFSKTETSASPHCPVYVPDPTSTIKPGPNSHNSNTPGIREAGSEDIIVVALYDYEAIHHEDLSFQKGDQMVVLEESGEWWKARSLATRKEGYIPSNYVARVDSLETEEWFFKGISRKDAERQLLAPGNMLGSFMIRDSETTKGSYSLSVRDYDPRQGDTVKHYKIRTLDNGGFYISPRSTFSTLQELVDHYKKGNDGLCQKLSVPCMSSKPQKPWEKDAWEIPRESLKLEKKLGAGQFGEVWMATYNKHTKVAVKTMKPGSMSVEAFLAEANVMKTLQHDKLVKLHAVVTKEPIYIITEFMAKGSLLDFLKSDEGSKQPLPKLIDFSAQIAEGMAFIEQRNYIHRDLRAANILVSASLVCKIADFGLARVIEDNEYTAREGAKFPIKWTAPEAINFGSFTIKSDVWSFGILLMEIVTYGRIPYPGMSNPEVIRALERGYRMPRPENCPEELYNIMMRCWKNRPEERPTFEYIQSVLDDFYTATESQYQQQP
Sequence of Serine/threonine-protein kinase 32B (Homo sapiens) (Q9NY57 whole entry): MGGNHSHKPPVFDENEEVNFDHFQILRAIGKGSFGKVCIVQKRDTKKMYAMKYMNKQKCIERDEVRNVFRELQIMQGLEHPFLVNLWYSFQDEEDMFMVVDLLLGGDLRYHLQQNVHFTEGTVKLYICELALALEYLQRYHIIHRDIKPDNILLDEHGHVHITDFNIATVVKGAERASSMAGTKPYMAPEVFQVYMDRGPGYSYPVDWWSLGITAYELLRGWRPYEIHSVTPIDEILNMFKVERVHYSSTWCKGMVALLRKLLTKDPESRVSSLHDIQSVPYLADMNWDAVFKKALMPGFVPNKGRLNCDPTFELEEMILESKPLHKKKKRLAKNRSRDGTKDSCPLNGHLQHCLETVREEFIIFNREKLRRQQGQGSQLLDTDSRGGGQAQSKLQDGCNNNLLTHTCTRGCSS
Sequence of NT-3 growth factor receptor (Q16288 32-839 limits assumed): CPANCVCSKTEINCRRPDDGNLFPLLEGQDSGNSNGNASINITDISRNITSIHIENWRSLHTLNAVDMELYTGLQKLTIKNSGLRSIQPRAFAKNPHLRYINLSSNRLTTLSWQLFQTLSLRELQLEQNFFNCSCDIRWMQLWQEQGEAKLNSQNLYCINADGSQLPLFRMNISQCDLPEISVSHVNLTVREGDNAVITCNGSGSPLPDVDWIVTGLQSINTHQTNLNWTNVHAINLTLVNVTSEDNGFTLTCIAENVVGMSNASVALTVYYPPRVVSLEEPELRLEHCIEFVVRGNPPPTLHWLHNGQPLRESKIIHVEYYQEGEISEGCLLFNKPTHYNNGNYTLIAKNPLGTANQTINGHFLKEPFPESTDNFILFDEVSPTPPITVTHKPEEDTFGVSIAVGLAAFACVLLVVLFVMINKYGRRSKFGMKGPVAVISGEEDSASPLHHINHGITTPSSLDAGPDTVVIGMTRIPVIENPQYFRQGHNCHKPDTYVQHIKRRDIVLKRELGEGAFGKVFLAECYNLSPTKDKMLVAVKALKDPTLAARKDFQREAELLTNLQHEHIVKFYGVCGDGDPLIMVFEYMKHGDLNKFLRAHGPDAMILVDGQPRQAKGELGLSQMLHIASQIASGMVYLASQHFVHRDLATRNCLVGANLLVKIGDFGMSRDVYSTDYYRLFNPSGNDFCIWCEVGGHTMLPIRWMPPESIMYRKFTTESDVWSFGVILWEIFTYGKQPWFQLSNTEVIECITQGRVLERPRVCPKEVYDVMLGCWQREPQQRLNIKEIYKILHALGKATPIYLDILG
Sequence of Mitogen-activated protein kinase kinase kinase kinase 5 (Homo sapiens) (Q9Y4K4 whole entry, looked up): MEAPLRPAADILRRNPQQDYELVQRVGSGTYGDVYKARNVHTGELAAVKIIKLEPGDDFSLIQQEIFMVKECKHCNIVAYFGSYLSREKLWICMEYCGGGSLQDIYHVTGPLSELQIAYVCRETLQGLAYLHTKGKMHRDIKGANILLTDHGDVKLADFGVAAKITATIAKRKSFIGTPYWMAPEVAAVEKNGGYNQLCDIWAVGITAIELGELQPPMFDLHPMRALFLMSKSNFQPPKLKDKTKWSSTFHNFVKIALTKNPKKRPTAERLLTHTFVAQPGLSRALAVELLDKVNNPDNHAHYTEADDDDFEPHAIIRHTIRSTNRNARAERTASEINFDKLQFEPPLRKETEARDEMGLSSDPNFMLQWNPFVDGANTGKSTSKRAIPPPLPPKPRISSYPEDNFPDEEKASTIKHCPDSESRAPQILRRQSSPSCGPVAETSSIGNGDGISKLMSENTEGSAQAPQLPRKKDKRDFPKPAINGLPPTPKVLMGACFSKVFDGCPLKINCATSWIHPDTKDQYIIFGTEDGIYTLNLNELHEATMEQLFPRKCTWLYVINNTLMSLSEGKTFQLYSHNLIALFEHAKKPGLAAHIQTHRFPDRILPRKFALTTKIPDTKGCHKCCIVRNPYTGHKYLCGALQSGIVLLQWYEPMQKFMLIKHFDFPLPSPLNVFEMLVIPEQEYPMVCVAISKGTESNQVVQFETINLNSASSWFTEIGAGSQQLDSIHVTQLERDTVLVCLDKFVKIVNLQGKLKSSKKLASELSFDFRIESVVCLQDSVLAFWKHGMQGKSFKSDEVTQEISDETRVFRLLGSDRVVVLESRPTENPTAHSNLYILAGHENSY
Sequence of Phosphatidylinositol 3-kinase catalytic subunit type 3 (Q8NEB9 whole entry): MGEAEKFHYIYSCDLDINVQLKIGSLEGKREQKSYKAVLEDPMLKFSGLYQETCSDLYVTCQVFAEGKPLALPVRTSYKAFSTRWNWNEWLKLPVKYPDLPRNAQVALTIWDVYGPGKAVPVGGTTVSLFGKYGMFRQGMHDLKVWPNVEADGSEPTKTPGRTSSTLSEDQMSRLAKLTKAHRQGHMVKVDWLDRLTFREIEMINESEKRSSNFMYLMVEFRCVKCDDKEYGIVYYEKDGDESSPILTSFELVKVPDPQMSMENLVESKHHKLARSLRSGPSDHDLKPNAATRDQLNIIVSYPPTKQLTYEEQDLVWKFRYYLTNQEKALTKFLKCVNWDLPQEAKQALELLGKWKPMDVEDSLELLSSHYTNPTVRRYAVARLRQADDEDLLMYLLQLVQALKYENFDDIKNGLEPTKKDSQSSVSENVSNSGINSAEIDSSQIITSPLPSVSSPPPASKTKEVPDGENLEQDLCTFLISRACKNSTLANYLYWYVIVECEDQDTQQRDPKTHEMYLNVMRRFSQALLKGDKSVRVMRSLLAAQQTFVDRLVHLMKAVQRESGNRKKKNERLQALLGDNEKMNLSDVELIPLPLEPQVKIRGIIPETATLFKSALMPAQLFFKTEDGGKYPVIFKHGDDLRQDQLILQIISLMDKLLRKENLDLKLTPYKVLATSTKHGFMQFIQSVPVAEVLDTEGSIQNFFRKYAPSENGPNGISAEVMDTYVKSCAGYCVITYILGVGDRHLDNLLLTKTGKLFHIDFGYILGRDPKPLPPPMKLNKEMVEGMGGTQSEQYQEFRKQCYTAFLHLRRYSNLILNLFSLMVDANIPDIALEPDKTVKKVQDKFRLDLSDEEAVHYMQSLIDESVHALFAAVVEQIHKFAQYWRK

CN(C)CCCOc1ccc(-c2cc(NCCCn3cccn3)nc(S(C)(=O)=O)n2)cc1
dTM [1]: < 2 K

CNC(=O)Nc1ccc(-c2nc(N3CC4CCC(C3)O4)c3cnn(C4CCC5(CC4)OCCO5)c3n2)cc1
% of control [2]: 95%
% of control [3]: 93%

CC[C@@H]1[C@H](F)C(=O)N[C@@H]1COc1nccc2cc(C(N)=O)c(OC)cc12 [ZIMLOVISERTIB]
% of inhibition ([4]; at 0.01 µM): -25.6%
% of inhibition ([4]; at 0.04 µM): -4.8%
% of inhibition ([4]; at 0.2 µM): -3.6%
% of inhibition ([4]; at 1 µM): 3.1%
% of inhibition ([4]; at 5 µM): 18.5%
% of inhibition [5]: -1.6%
% of inhibition [6]: 4.3%

Cc1cc(C)cc([C@@H]2c3cc(C)ccc3NC(=O)CN2C(=O)c2ccc(Br)s2)c1
% of inhibition [7]: 4%

Cc1cc(F)c(C(=O)Nc2cccc(-c3nncn3C(C)C)n2)cc1-n1cnc(C2CC2)c1
% of control [8]: 100%
% of control [9]: 85%

Nc1cnc(N2CCc3cc(S(=O)(=O)Nc4c(F)cc(Cl)cc4F)cc(N4CCCC4=O)c32)nc1 [TP-020n]
% of control [10]: 100%
% of control [11]: 74%

C=CC(=O)Nc1ccc(C(=O)Nc2[nH]nc3c2CN(C(=O)N[C@H](CN(C)C)c2ccccc2)C3(C)C)cc1
% of engagement [12]: 6%

CN(C)CC#Cc1ccc2[nH]c3c(c2c1)-c1nc(N)ncc1CCC3
% of control [13]: 1.8%

Cc1cc(CN)cc(C)c1-c1ncn(C)c1-c1cncn1C
dTM [14]: -1.97 K

Cc1cc([C@@H](C)Nc2ccccc2C(=O)O)c2nc(N3CCOCC3)cc(=O)n2c1 [AZD-6482]
% of control [15]: 100%
